Laboratory results from patent publication US7576101B2, “Composition for and treatment of demyelinating diseases and paralysis by administration of remyelinating agents” (Elan Pharmaceuticals, Inc., priority 2003, dated 2009).

Experiments:
[1] = system: guinea pig model of CP-EAE; test: Remyelination and functional recovery in guinea pig model of CP-EAE; format: in vivo
From the text: The number of lesions showing myelin pallor was divided by the total number of lesions within cross sections of spinal cord taken throughout its length from each animal (FIG. 10) (for the method see Warrington et al., 2000, Proc. Nat'l Acad. Sci. USA 97: 6820-5). […] In contrast, after 20 days of N-[N-(3-pyridinesulfonyl)-L-3,3-dimethyl-4-thiaprolyl]-O-[1-methylpiperazin-4-ylcarbonyl]-L-tyrosine isopropyl ester administration, the frequency of shadow plaques in the spinal cord was increased over saline-treated animals, reaching 68%; after 30 and 40 days, the incidence was 77% and 87%, respectively (p<0.001, 2-way ANOVA with Tukey test).
The overall degree of plaque remyelination in the spinal cord was also measured. […] Total lesion area was determined for each animal by tracing all lesions within all spinal cord sections and summing the areas. Likewise, the total area of remyelination was measured by tracing regions of myelin pallor. FIGS. 10C-F plot the total lesion area against the percentage of remyelination. In saline-treated animals, lesions rarely show any evidence of repair, with means ranging between 2 and 11%, and there were no significant differences over the 40-day treatment period (FIGS. 10C-F). In contrast, after 20, 30 or 40 days of N-[N-(3-pyridinesulfonyl)-L-3,3-dimethyl-4-thiaprolyl]-O-[1-methylpiperazin-4-ylcarbonyl]-L-tyrosine isopropyl ester treatment, the majority of lesions identified show a variable degree of remyelination ranged from 2 to 100% in the majority of lesions (mean area of remyelination approximately 50%) (FIGS. 10D-5). (p<0.001, 2-way ANOVA with Tukey test). Therefore while lesions were evident in all animals throughout the 40-day treatment period, N-[N-(3-pyridinesulfonyl)-L-3,3-dimethyl-4-thiaprolyl]-O-[1-methylpiperazin-4-ylcarbonyl]-L-tyrosine isopropyl ester increased the incidence and percentage of remyelination. Furthermore, evidence of remyelination in N-[N-(3-pyridinesulfonyl)-L-3,3-dimethyl-4-thiaprolyl]-O-[1-methylpiperazin-4-ylcarbonyl]-L-tyrosine isopropyl ester-treated animals is consistent with an observed regain of motor function. The starting point for treatment was a clinical score of 2, which denotes full bilateral hind limb paralysis. […] Functional recovery was never observed in control animals.

α4β1 = target: T1, α4β1 (Homo sapiens, UniProt P05556+P13612); test: In vitro saturation assay for determining binding of candidate compounds to α4β1 (Jurkat cells in plasma, 15/7 antibody, FACS); format: cell-based; conditions: guinea pig, 30 mg/kg twice a day subcutaneously
T1 construct: endogenous in cells; host or cells: Jurkat cells
Protocol: The following describes an in vitro assay to determine the plasma levels needed for a compound to be active in the Experimental Autoimmune Encephalomyelitis (“EAE”) model, described in the next example, or in other in vivo models.
Log-growth Jurkat cells are washed and resuspended in normal animal plasma containing 20 μg/ml of the 15/7 antibody (described in the above example).
The Jurkat cells are diluted two-fold into either normal plasma samples containing known candidate compound amounts in various concentrations ranging from 66 μg/mL to 0.01 μg/mL, using a standard 12 point serial dilution for a standard curve, or into plasma samples obtained from the peripheral blood of candidate compound-treated animals.
Cells are then incubated for 30 minutes at room temperature, washed twice with phosphate-buffered saline (“PBS”) containing 2% fetal bovine serum and 1 mM each of calcium chloride and magnesium chloride (assay medium) to remove unbound 15/7 antibody. […]
Cells are washed twice with assay medium and resuspended in the same. They are then analyzed with a standard fluorescence activated cell sorter analysis as described in Yednock et al., J. Bio. […]
The data is then graphed as fluorescence versus dose, e.g., in a normal dose-response fashion. […]

[2] = system: experimental allergic encephalomyelitis in female Hartley guinea pigs; test: Chronic EAE in guinea pigs: histological analysis and pathological score of brain and spinal cord; format: in vivo, guinea pig; conditions: for spinal cord histology after 20 days of treatment (day 60 post immunization) / spinal cord histology after 40 days of treatment (day 80 post immunization): SCR and H-E sections, vs saline
Protocol: Animal Sacrifice and Histological Analysis. Untreated, chronic EAE animals (n=5) were sacrificed on day 40, as well as non-EAE controls (n=5). Following each 10-day treatment interval, 5 animals from each group were sacrificed (0.25 mL sodium pentobarbital), blood samples were collected for FACS analysis (see below), and the brain and spinal cord dissected and sectioned. Three spinal sections were used, corresponding to lumbar, thoracic and cervical regions of the cord. The brain was cut into five transverse sections. The first three proximal sections were combined in one block, and the last two distal sections in another. Tissues were fixed in 10% formalin and embedded in paraffin. […] sections were stained with hematoxylin-eosin (H-E) or solochrome-R-cyanlin (SCR) and evaluated by a blinded observer in each of four categories: (1) meningeal inflammation, (2) perivascular infiltration, (3) encephalitis or (4) myelitis and demyelination (Table 6). The combined pathological score represents the total score (out of a potential 20) from all 5 CNS sections in each animal.
Statistical Analysis. Statistical analysis was performed using SigmaStat v2 software (SPSS Inc.). Clinical scores were assessed using the Mann Whitney rank sum test, while pathological scores were assessed with a two-Way ANOVA. Quantitative abnormalities were compared using Kruskal-Wallis ANOVA on ranks. In each case, p<0.05 was considered significant. A linear regression was performed on the mean cell counts in the spinal cord.

[3] = system: α4 integrin on lymphocytes and monocytes; test: Chronic EAE in guinea pigs: FACS analysis of α4 integrin on circulating lymphocytes and monocytes; format: in vivo, guinea pig
Protocol: FACS Analysis. On day 80 post-immunization, heparinized blood samples were collected from non-EAE animals, saline-treated animals, N-[N-(3-pyridinesulfonyl)-L-3,3-dimethyl-4-thiaprolyl]-O-[1-methylpiperazin-4-ylcarbonyl]-L-tyrosine isopropyl ester-treated animals and animals 10 days following withdrawal of N-[N-(3-pyridinesulfonyl)-L-3,3-dimethyl-4-thiaprolyl]-O-[1-methylpiperazin-4-ylcarbonyl]-L-tyrosine isopropyl ester. All samples were maintained at 4° C. for all procedures. 150 μl samples were exposed to primary antibody for 30 minutes, washed twice, and then incubated with PE-conjugated goat anti-mouse IgG Fc in the presence of 5% guinea pig serum (Beckman Coulter #PN EM055 1). Red blood cells were lysed with Becton-Dickinson lysing solution and the samples were examined on a FACScan flow cytometer (Becton Dickinson, Mountain View, Calif.) gating on different cell populations by light scatter.

[4] = listed as N-[N-(3-pyridinesulfonyl)-L-3,3-dimethyl-4-thiaprolyl]-O-[1-methylpiperzain-4-yl

T1 sequence (P13612 34-1032): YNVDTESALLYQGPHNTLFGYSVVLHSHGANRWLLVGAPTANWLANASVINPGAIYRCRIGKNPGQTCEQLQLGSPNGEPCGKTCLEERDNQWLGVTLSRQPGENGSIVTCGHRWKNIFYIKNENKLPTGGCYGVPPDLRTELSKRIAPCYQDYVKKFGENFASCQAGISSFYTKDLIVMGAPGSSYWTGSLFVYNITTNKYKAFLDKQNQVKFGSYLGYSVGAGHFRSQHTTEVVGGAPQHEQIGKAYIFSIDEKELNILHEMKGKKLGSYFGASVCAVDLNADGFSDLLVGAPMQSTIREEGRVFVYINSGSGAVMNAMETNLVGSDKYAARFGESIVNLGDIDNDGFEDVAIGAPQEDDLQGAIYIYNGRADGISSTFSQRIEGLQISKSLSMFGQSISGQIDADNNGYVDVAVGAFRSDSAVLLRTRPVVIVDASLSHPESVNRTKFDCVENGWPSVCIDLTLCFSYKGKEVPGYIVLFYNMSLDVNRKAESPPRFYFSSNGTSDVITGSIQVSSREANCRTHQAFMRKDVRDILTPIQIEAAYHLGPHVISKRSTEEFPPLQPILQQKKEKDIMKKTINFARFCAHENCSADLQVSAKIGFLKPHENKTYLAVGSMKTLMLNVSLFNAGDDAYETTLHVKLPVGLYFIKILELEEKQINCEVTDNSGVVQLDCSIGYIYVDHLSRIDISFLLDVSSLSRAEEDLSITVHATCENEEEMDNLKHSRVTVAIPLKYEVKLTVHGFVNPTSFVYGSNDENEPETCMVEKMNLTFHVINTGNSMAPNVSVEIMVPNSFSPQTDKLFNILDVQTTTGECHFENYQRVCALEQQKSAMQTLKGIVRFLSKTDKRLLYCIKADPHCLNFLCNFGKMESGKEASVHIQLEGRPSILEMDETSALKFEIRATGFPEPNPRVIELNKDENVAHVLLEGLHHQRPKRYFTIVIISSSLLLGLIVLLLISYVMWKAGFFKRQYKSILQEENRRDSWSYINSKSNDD
T1 sequence (P05556 21-798): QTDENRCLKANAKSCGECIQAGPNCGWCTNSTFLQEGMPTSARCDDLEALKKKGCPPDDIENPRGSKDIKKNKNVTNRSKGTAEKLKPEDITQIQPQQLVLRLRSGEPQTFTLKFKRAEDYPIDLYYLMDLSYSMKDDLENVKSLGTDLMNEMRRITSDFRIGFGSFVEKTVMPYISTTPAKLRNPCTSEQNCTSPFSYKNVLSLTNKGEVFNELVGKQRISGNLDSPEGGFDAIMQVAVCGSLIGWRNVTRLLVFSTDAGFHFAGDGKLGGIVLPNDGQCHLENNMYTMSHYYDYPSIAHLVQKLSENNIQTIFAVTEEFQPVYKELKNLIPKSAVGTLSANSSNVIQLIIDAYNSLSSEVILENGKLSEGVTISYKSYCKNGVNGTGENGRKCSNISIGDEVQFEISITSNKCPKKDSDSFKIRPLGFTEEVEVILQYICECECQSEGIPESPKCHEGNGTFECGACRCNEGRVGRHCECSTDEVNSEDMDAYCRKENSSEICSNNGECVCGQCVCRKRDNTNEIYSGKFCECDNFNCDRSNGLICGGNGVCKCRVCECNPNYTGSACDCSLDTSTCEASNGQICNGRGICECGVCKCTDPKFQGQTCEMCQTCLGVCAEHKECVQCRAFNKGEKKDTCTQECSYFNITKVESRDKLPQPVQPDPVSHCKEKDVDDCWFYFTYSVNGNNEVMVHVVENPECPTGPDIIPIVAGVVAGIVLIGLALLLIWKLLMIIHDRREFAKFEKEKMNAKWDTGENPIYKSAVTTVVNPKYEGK

## CC(C)OC(=O)[C@H](Cc1ccc(OC(=O)N2CCN(C)CC2)cc1)NC(=O)[C@H]1N(S(=O)(=O)c2cccnc2)CSC1(C)C [N-[N-(3-pyridinesulfonyl)-L-3,3-dimethyl-4-thiaprolyl]-O-[1-methylpiperazin-4-ylcarbonyl]-L-tyrosine isopropyl ester]
[1]; after 20 days of administration
  percentage of plaques exhibiting remyelination (frequency of shadow plaques in the spinal cord): 68%
[1]; after 30 days of administration
  percentage of plaques exhibiting remyelination (incidence): 77%
[1]; after 40 days of administration
  percentage of plaques exhibiting remyelination (incidence): 87%
[1]; starting clinical score of 2 (full bilateral hind limb paralysis)
  treated animals in which paralysis was reversed to a clinical score of 1: 50%
α4β1
  receptor saturation levels maintained at all times: > 10 nm
[2]; 10-40 days treatment, p<0.001 two-way ANOVA
  mean pathological score in each of four categories (meningeal inflammation, perivascular infiltration, encephalitis/myelitis, demyelination) vs saline: significant decrease
[2]
  spinal cord histology after 20 days of treatment (day 60 post immunization): much smaller areas of demyelination
  spinal cord histology after 40 days of treatment (day 80 post immunization): almost no meningeal and perivascular infiltration
[2]; [4]
  spinal cord histology after 20 days of treatment (day 60 post immunization): much smaller area of demyelination
  spinal cord histology after 40 days of treatment (day 80 post immunization): almost no meningeal and perivascular inflammation
[2]; p<0.05 Kruskal Wallis ANOVA on ranks with SNK test
  mean combined pathological score after withdrawal for 10 days vs continued treatment: significantly higher
[3]; day 80, 10 days after withdrawal
  percentage of α4 integrin bright lymphocytes in the circulation after removal: returned to saline-treated levels
[3]; day 80 post immunization
  increase of α4 integrin expression on circulating monocytes in EAE: not affected
  α4 integrin bright lymphocytes in the circulation vs saline-treated animals: large increase
